In PubChem BioAssay (NCI):
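48-hour exposure; five concentrations; linearly interpolated endpoints. Here, GI50 denotes the concentration required for 50% inhibition of growth. TGI: total growth inhibition.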

Experiments:
Test in all cases: NCI-60 cell line screen, 48 h
786-0 renal = test system: 786-0 renal
BT-549 breast = test system: BT-549 breast
CAKI-1 renal = test system: CAKI-1 renal
HOP-62 NSCLC = test system: HOP-62 NSCLC
K-562 leukemia = test system: K-562 leukemia
NCI-H23 lung = test system: NCI-H23 lung
OVCAR-3 ovarian = test system: OVCAR-3 ovarian
OVCAR-4 ovarian = test system: OVCAR-4 ovarian
SF-295 CNS = test system: SF-295 CNS
RXF 393 renal = test system: RXF 393 renal

Structure (SMILES)	TGI (786-0 renal) [µM]	TGI (BT-549 breast) [µM]	TGI (CAKI-1 renal) [µM]	TGI (HOP-62 NSCLC) [µM]	TGI (K-562 leukemia) [µM]	TGI (NCI-H23 lung) [µM]	TGI (OVCAR-3 ovarian) [µM]	TGI (OVCAR-4 ovarian) [µM]	TGI (SF-295 CNS) [µM]	TGI (RXF 393 renal) [µM]	GI50 (BT-549 breast) [µM]	GI50 (CAKI-1 renal) [µM]	GI50 (HOP-62 NSCLC) [µM]	GI50 (NCI-H23 lung) [µM]	GI50 (OVCAR-3 ovarian) [µM]	GI50 (RXF 393 renal) [µM]	GI50 (SF-295 CNS) [µM]	GI50 (K-562 leukemia) [µM]	GI50 (OVCAR-4 ovarian) [µM]
CC(=O)N/N=C1\NC(=O)C[C@H]2[C@@H]3CC=C4C[C@@H](OC(C)=O)CC[C@]4(C)[C@H]3CC[C@]12C	43.1	32.7	> 100	32.5	> 100	> 100	> 100	25.7	45.1										
COC(=O)c1c2c(cc3c1CC1(C3)Cc3cc4c(c(C(=O)OC)c3C1)CCCC4)CCCC2	> 100			> 100	> 100	> 100	> 100	> 100	> 100	> 100									
COc1ccc2cc(-c3ccc(-c4ccc(C(=N)N)s4)s3)ccc2c1		38.5	21.9	3.68		9.89	6.07		17.6	23.2	17.6	8.29	1.78	3.22	2.42	7.22	5.07		
O=C(c1cc2ccccc2cc1O)N1CCCCC1	> 100	84.2	> 100	> 100	48.6			> 100	> 100	> 100									
O=C(CNc1ccccc1Cl)Nn1c(-c2ccccc2)nc2ccccc2c1=O	40.2	25.5		72.9	97.2	40.8	48.3	93.4	91.1	36.7									
CN(C)c1ccc(C=C2N=C(c3ccccc3)N(c3cc(C(=O)c4ccccc4)ccc3N3C(=O)/C(=C/c4ccc(N(C)C)cc4)N=C3c3ccccc3)C2=O)cc1	> 100	> 100	> 100	> 100	> 100		5.57	> 100	27.1										
C=CC[C@]12C[C@@H](C(=O)OC)N(C(=O)OC)[C@H]1N(S(=O)(=O)c1ccccc1)c1ccccc12	> 100	> 100	> 100	> 100	> 100	> 100	> 100	> 100		66.9									
BrC/C=C/C[P+](c1ccccc1)(c1ccccc1)c1ccccc1	> 100			58.2	> 100	> 100	58.7	> 100	60.6										
Cc1nn(C(=O)Cc2ccccc2)c2c1C(c1ccc(O)cc1)SC(N)=N2 (stereo not drawn)	> 100	> 100	> 100	> 100	> 100	> 100			> 100										
C=CCO/N=C/c1cc(NC(=S)c2ccoc2C)ccc1Cl	> 100	34.7	23.6	29.5		26.7	24.3	20.6	26.6	65.8									
N=S(c1ccccc1)c1ccccc1[N+](=O)[O-] (stereo not drawn)	30.3		28.8	52.6	45	35.2	23.2	28.4	36.7										
C=CCNC(=S)/N=C/c1c(O)c2ccccc2oc1=O	> 100		82.6		> 100	> 100	> 100	> 100	> 100	85.8									
CCCCC1c2c([nH]c3ccccc23)C2C(=O)N(c3ccc(OC)cc3)C(=O)C2C1CCC (stereo not drawn)	> 10		6.25	> 10	7.43	> 10	6.26	> 10	> 10	> 10									
O=c1ccc2cc3ccc4cccc5ccc(c2o1)c3c45			> 100		> 100	> 100			> 100										
COc1ccc2nc3cc(Cl)ccc3c(NCCCNCCCNc3c4ccc(Cl)cc4nc4ccc(OC)cc34)c2c1		1.67		0.14	15.2	0.144	0.61		0.183	0.453									
Cc1cc2[nH]c3[nH]c(=O)[nH]c(=O)c3c2cc1C	> 100	> 100	> 100	> 100		> 100			> 100	> 100									
Brc1cccc(Nc2nc(-c3cccs3)nc3ccc(Br)cc23)c1	> 100	> 100	68.5	> 100	> 100	> 100	82.1	> 100	45.1										
COc1ccc(C#CC(=O)O)c(OC)c1	> 100	> 100	> 100	> 100	> 100	> 100	> 100	> 100	> 100										
Cc1c2c(n(CCc3ccc(Cl)cc3)c1C)NN=C(C#N)S2(=O)=O	> 100			> 100	> 100	> 100	> 100	> 100											
Cc1cc(=O)c2c([nH]1)NS(=O)(=O)NC2=O	> 100		> 100	> 100	> 100	> 100	> 100	> 100	> 100										
O=c1c2ccccc2nc2[nH][nH]c(=S)n12	> 100	> 100	> 100	> 100	> 100	> 100	> 100		> 100										
COc1cc2c(cc1-c1c(C)noc1C)cc(C)c(=O)n2Cc1ccccn1		> 100	23.2	> 100	> 100	> 100	11.2	> 100	> 100	5	3.89	0.284	0.489	3.4	1.8	0.498	2.3	0.963	1.33
O=[N+]([O-])/C(C(Cl)=C(Cl)Cl)=C(\Nc1cccc2cccnc12)SCc1ccccc1	47.3	35.6	43.3	33.6	56.9	32.7	32.8	46	37.4										
